Data on 2 molecules can be found in paper PMC5104457, “ATP-Competitive MLKL Binders Have No Functional Impact on Necroptosis” (PLoS ONE, 2016).

For one series, the system named is FADD (-/-) Jurkat cells. Briefly: Viability experiment in the absence of TNF. Type of series: cell-based. Particulars: FADD deficient Jurkat cells, Fig 3A. The protocol:
Necroptosis assays were performed at Charles River Laboratories (United Kingdom) and at Biogen. […] On the day of the experiment, cells were counted using Nexcelom Bioscience Cell Meter Vision and pelleted by centrifugation. Cell pellets were resuspended in fresh medium at 500,000 cells per mL and transferred to assay-ready compound plates prepared in 384-well white TC plates (Greiner #781080) at 20μl cells per well. Cells and compound were incubated at room temperature for 30 minutes followed by +/- stimulation with 15ng/ml TNF-α (Cell signalling Technologies #8902LF) overnight at 37°C. In the morning, plates were equilibrated to room temperature for 30 minutes and 25μl of CellTiter-Glow (CellTiter-Glo 2.0 Assay, Promega # G9243) diluted 1:4 in PBS was added to each well and allowed to incubate for 10 minutes at room temperature. Luminescence was read on an Envision plate reader (Perkin Elmer). Percent viability values are calculated from separate dose response experiments identical to the percent rescue experiment except that no TNF is added to the cells. This assay is intended to identify compounds that not only don’t rescue, but are toxic themselves. 100% Viability is defined as the intensity value of the “no TNF” wells, cell treated with neither compound nor TNF. […]

The target of another series is T1, N-terminal domain HSP90α (Homo sapiens, UniProt P07900).
T1 construct: the N-terminal domain HSP90α; made in house
In words: Differential scanning fluorimetry (thermal shift), Hsp90α N-terminal domain. In kind it is binding. Particulars: 10 μM compound, Hsp90α catalytic domain. On the procedure:
To measure the thermal stabilization of the proteins upon compound binding we employed differential scanning fluorimetry (DSF). The kinase domain of RIPK1 and the N-terminal domain HSP90α were expressed and purified as previously described. The pseudokinase MLKL-1, RIPK1 and Hsp90 were melted at 1μM final concentrations in 25mM HEPES pH 8.0, 250mM NaCl and 2.5mM DTT. Compounds were added to a final concentration of 10 μ M with a final DMSO concentration of 5%. The complexes were incubated on ice for 30 minutes. Protein Thermal Shift dye (Life Technologies) was added to 1X. The fluorescence intensities were measured using a Quantstudio real-time PCR system (Life Technologies) with excitation at 470 nm and emission at 586 nm. The samples, measured in triplicate, were heated from 25 to 85°C with a heating rate of […].
A general note: DSF heats the sample and reads unfolding from a dye or from intrinsic fluorescence.

For the next series, the target named is T2, full length MLKL (Homo sapiens, UniProt Q8NB16).
T2 construct: purchased DiscoverX (KINOMEscan service); host or cells: HEK-293
T2 sequence (Q8NB16 1-471): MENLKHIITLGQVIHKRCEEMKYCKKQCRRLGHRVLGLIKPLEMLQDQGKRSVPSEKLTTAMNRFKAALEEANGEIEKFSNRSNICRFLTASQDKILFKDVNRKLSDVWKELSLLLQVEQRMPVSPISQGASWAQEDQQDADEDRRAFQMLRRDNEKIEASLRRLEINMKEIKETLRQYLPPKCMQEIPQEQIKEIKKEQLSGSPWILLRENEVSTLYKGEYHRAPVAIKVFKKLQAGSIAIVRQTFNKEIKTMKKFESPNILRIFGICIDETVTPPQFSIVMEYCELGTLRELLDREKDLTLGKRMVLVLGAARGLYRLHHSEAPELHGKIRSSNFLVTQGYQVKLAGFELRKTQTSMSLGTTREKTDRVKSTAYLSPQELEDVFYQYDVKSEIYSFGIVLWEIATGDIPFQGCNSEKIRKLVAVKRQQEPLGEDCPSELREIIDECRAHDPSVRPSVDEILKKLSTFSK
In words: KINOMEscan ATP-competitive probe displacement (competition binding) assay, MLKL. Particulars: average of duplicates. On the procedure: Compound binding constants (KDs) were determined at DiscoverX using their KINOMEscan assay platform. […] Briefly, full length MLKL was expressed in HEK-293 cells as a fusion with an NFκB DNA binding domain and subsequently tagged with a qPCR detection amplicon via interaction with NFκB. […] Twenty microliters of binding reactions were carried out in 384-well polypropylene plates for 1 hour at room temperature. Beads were subsequently washed and resuspended in elution buffer for 30 minutes at room temperature with shaking. The concentration of MLKL in the eluates was measured by qPCR and compound binding constants were calculated using a standard dose-response curve.
A similar approach was used to measure binding affinities for RIPK1 and RIPK3 kinase domains.

A value given as a limit tells only on which side of the number the result lay.

In general, ΔTm refers to the shift of the melting midpoint relative to a reference. Turning to `CN(c1ccc(NC(=O)Nc2ccc(OC(F)(F)F)cc2)cc1)c1ccnc(Nc2cccc(S(N)(=O)=O)c2)n1` [cpd 1, reference compound], the “compound concentration at which cell viability became an issue” value with FADD (-/-) Jurkat cells is more than 2000 nM. The ΔTm at 10 µM on N-terminal domain HSP90α was 1.5 °C. As a reminder, the Kd is the equilibrium constant for the complex coming apart. `Nc1nccnc1C(=O)O[C@@H](C(=O)Nc1ccc(F)cc1)c1ccccc1` [cpd 4, 3-Amino-pyrazine-2-carboxylic acid (R)-(4-fluorophenylcarbamoyl)-phenyl-methyl ester]: the Kd on full length MLKL was found to be 230 nM.
